Bounds are passed on as bounds.
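Also: spheroids exposed to compounds for seven days.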

One experiment concerns 889142-216-R-J1-PDC complex spheroid viability. Put plainly: Anticancer human tumor 889142-216-R-J1-PDC patient-derived bladder carcinoma cell line growth inhibition [POLQ]. The settings on record: curve of first compound; second compound 0.0316 µM. The protocol: Multicellular complex tumor spheroid response to Polymerase (POL) inhibitors (novobiocin, ART-558, RP6685) in combination with a variety of drugs and investigational agents in selected tumor cell lines
The POL inhibitors (novobiocin, ART-558, and RP6685) were evaluated both individually and in combination with standard of care and investigational anticancer small molecules within a complex spheroid model of solid tumors. . Complex spheroids include a stromal component modeled by human endothelial cells (HUVEC) and fibroblasts modeled by human mesenchymal stem cells (MSCs). The concentration ranges selected for each drug and investigational agent were based upon clinically achievable concentrations if the clinical Cmax of the agent was known.
Compounds. The drugs and investigational agents: novobiocin (NSC847541), ART-558 (NSC835418), RP-6685 (NSC848927), peposertib (NSC802822), ceralasertib (NSC780249), elimusertib (NSC800525), camonsertib (NSC841442), AZD-1390 (NSC803789), olaparib (NSC753686), talazoparib (NSC767125), rucaparib (NSC756644), sotorasib (NSC818433), MRTX-1133 (NSC836407), SN-38 (NSC673596), topotecan (NSC609699), epotoside (NSC141540), doxorubicin (NSC123127), gemcitabine (NSC613327), 5-fluorouracil (NSC19893), paclitaxel (NSC125973), vemurafenib (NSC761431), MSA-2 (NSC828583), SN-011 (NSC837082), adavosertib (NSC754352), prexasertib (NSC758257), carboplatin (NSC241240) and oxaliplatin (NSC266046), were obtained from the National Cancer Institute (NCI) Developmental Therapeutics Program Chemical Repository (21). The FDA-approved anticancer drug set is available from the Developmental Therapeutics Program at https://dtp.cancer.gov/organization/dscb/obtaining/. […] The stock solutions were prepared in dimethyl sulfoxide (DMSO, Sigma-Aldrich, St. Louis, MO, cat. D2650), except for the platinum compounds which were prepared in saline (Quality Biological, Gaithersburg, MD, cat. 114-055-101), at 800-fold the tested concentration and stored at -70 degrees C prior to their use. All drugs and investigational agents were tested over a range starting from a high concentration at or near the clinical Cmax and decreasing in half-log increments. If the clinical Cmax for an agent had not been determined, the highest concentration tested was 10 microM, except for SN-38, which was tested at a high concentration of 1 microM.
Cell Culture. All cells were maintained in an incubator at 37 degrees C and 5% CO2 with 95% humidity. The PDC lines were cultured according to standard operating procedures established by the NCI PDMR (https://pdmr.cancer.gov). Table 3 of the manuscript, lists the cell lines along with the number of the three cell types plated to form the mct-spheroids and media for tumor cell growth. After thawing, all PDC lines, except 997537-175-T-J1-PDC and 415267-285-R-J2-PDC, were cultured in Matrigel-coated flasks prepared with a working solution of 1X Ham's F-12 nutrient mix, without supplementation (Thermo Fisher Scientific, cat. 11765054), 100 U/mL penicillin-streptomycin (Thermo Fisher Scientific, cat. 15140122), and 2.5% Matrigel (Corning Inc., Corning, NY, cat. 354248) for the first three passages. The two PDC lines 997537-175-T-J1-PDC and 415267-285-R-J2-PDC were cultured on uncoated flasks. The 857933-349-R-J2-PDC line was cultured in 6C/Colon 1B media containing advanced DMEM/F-12 (Thermo Fisher Scientific, cat. 12634028), 10 mM HEPES (Thermo Fisher Scientific, cat. 15630080), 1X GlutaMAX supplement (Thermo Fisher Scientific, cat. 35050061), 0.1 mg/mL primocin (InvivoGen, San Diego, CA, cat. ant-pm-2), 10% defined fetal bovine serum, heat inactivated (HyClone Laboratories Inc., Logan, UT, cat. SH30070.03HI), 50% L-WRN conditioned media (ATCC, cat. CRL-3276), 1.25 mM N-Acetyl-L-cysteine (Sigma-Aldrich, cat. A9165), 10 mM nicotinamide (Sigma-Aldrich, cat. N0636), 1X B-27 supplement (Thermo Fisher Scientific, cat. 17504044), 1X N-2 supplement (Thermo Fisher Scientific, cat. […]
As to `CC1COCCN1c1cc(C2(S(C)(=N)=O)CC2)nc(-c2ccnc3[nH]ccc23)n1` (stereo unspecified) + Cc1cccc(N(C)C(=O)C2C(O)CCN2c2nc(C)cc(C(F)(F)F)c2C#N)c1, the IC50 (usually the concentration that inhibits the measured activity by half) turned out to be 7.04 µM.

Take `CCc1cc2c(N3CCc4c(cc(Cn5ccnc5)cc4-c4cn(C)nc4C(F)(F)F)C3=O)ccnc2c(OC)n1` + Cc1cccc(N(C)C(=O)C2C(O)CCN2c2nc(C)cc(C(F)(F)F)c2C#N)c1: the IC50 is more than 10 µM.

Take `COc1cc(C2c3cc4c(cc3C(OC3OC5COC(C)OC5C(O)C3O)C3COC(=O)C23)OCO4)cc(OC)c1O` (stereo unspecified) + Nc1ccc(C#CCN(C(=O)Cc2ncc(C(F)(F)F)cc2C(F)(F)F)c2ccc(F)cc2)nn1: the half-inhibitory concentration (IC50) was more than 10 µM.

Staying with this experiment, now noted: curve of first compound; second compound 0.1 µM.
Take `CC1COCCN1c1cc(C2(S(C)(=N)=O)CC2)nc(-c2ccnc3[nH]ccc23)n1` (stereo unspecified) + Cc1cccc(N(C)C(=O)C2C(O)CCN2c2nc(C)cc(C(F)(F)F)c2C#N)c1: the IC50 came to 10 µM.

Turning to `CCc1cc2c(N3CCc4c(cc(Cn5ccnc5)cc4-c4cn(C)nc4C(F)(F)F)C3=O)ccnc2c(OC)n1` + Cc1cccc(N(C)C(=O)C2C(O)CCN2c2nc(C)cc(C(F)(F)F)c2C#N)c1, the IC50 was more than 10 µM.

On to `COc1cc(C2c3cc4c(cc3C(OC3OC5COC(C)OC5C(O)C3O)C3COC(=O)C23)OCO4)cc(OC)c1O` (stereo unspecified) + Nc1ccc(C#CCN(C(=O)Cc2ncc(C(F)(F)F)cc2C(F)(F)F)c2ccc(F)cc2)nn1, for which the IC50 was more than 10 µM.

Staying with this experiment, now noted: curve of first compound; second compound 0.316 µM.
Take `CC1COCCN1c1cc(C2(S(C)(=N)=O)CC2)nc(-c2ccnc3[nH]ccc23)n1` (stereo unspecified) + Cc1cccc(N(C)C(=O)C2C(O)CCN2c2nc(C)cc(C(F)(F)F)c2C#N)c1: the IC50 was determined as 3.02 µM.

On to `CCc1cc2c(N3CCc4c(cc(Cn5ccnc5)cc4-c4cn(C)nc4C(F)(F)F)C3=O)ccnc2c(OC)n1` + Cc1cccc(N(C)C(=O)C2C(O)CCN2c2nc(C)cc(C(F)(F)F)c2C#N)c1, for which the IC50 was more than 10 µM.

`COc1cc(C2c3cc4c(cc3C(OC3OC5COC(C)OC5C(O)C3O)C3COC(=O)C23)OCO4)cc(OC)c1O` (stereo unspecified) + Nc1ccc(C#CCN(C(=O)Cc2ncc(C(F)(F)F)cc2C(F)(F)F)c2ccc(F)cc2)nn1: the IC50 was more than 10 µM.

The same experiment, now with this note: curve of first compound; second compound 1 µM.
Consider `CC1COCCN1c1cc(C2(S(C)(=N)=O)CC2)nc(-c2ccnc3[nH]ccc23)n1` (stereo unspecified) + Cc1cccc(N(C)C(=O)C2C(O)CCN2c2nc(C)cc(C(F)(F)F)c2C#N)c1, for which the IC50 is 2.27 µM.

In the case of `CCc1cc2c(N3CCc4c(cc(Cn5ccnc5)cc4-c4cn(C)nc4C(F)(F)F)C3=O)ccnc2c(OC)n1` + Cc1cccc(N(C)C(=O)C2C(O)CCN2c2nc(C)cc(C(F)(F)F)c2C#N)c1, the half-inhibitory concentration (IC50) is more than 10 µM.

For `COc1cc(C2c3cc4c(cc3C(OC3OC5COC(C)OC5C(O)C3O)C3COC(=O)C23)OCO4)cc(OC)c1O` (stereo unspecified) + Nc1ccc(C#CCN(C(=O)Cc2ncc(C(F)(F)F)cc2C(F)(F)F)c2ccc(F)cc2)nn1, the concentration for half-maximal inhibition (IC50) is 8.97 µM.

Still in this experiment, the particulars now being: curve of first compound; second compound 3.16 µM.
On to `CC1COCCN1c1cc(C2(S(C)(=N)=O)CC2)nc(-c2ccnc3[nH]ccc23)n1` (stereo unspecified) + Cc1cccc(N(C)C(=O)C2C(O)CCN2c2nc(C)cc(C(F)(F)F)c2C#N)c1, for which the IC50 stood at 1.4 µM.

Consider `CCc1cc2c(N3CCc4c(cc(Cn5ccnc5)cc4-c4cn(C)nc4C(F)(F)F)C3=O)ccnc2c(OC)n1` + Cc1cccc(N(C)C(=O)C2C(O)CCN2c2nc(C)cc(C(F)(F)F)c2C#N)c1, for which the IC50 was more than 10 µM.

Regarding `COc1cc(C2c3cc4c(cc3C(OC3OC5COC(C)OC5C(O)C3O)C3COC(=O)C23)OCO4)cc(OC)c1O` (stereo unspecified) + Nc1ccc(C#CCN(C(=O)Cc2ncc(C(F)(F)F)cc2C(F)(F)F)c2ccc(F)cc2)nn1, the IC50 is more than 10 µM.

The experiment is the same for the next values; noted with them: curve of first compound; second compound 10 µM.
Regarding `CC1COCCN1c1cc(C2(S(C)(=N)=O)CC2)nc(-c2ccnc3[nH]ccc23)n1` (stereo unspecified) + Cc1cccc(N(C)C(=O)C2C(O)CCN2c2nc(C)cc(C(F)(F)F)c2C#N)c1, the IC50 came out at 0.966 µM.

Take `CCc1cc2c(N3CCc4c(cc(Cn5ccnc5)cc4-c4cn(C)nc4C(F)(F)F)C3=O)ccnc2c(OC)n1` + Cc1cccc(N(C)C(=O)C2C(O)CCN2c2nc(C)cc(C(F)(F)F)c2C#N)c1: the IC50 is more than 10 µM.

With `COc1cc(C2c3cc4c(cc3C(OC3OC5COC(C)OC5C(O)C3O)C3COC(=O)C23)OCO4)cc(OC)c1O` (stereo unspecified) + Nc1ccc(C#CCN(C(=O)Cc2ncc(C(F)(F)F)cc2C(F)(F)F)c2ccc(F)cc2)nn1, the IC50 was more than 10 µM.

The same experiment, now with this note: second compound 0.0316 µM; first compound 0.0316 µM; stronger effect = lower value.
For the molecule `CC1COCCN1c1cc(C2(S(C)(=N)=O)CC2)nc(-c2ccnc3[nH]ccc23)n1` (stereo unspecified) + Cc1cccc(N(C)C(=O)C2C(O)CCN2c2nc(C)cc(C(F)(F)F)c2C#N)c1, the viability, T/C (as a rule, the result in the treated group divided by that in the control group, in per cent) was 109%.

As for `CCc1cc2c(N3CCc4c(cc(Cn5ccnc5)cc4-c4cn(C)nc4C(F)(F)F)C3=O)ccnc2c(OC)n1` + Cc1cccc(N(C)C(=O)C2C(O)CCN2c2nc(C)cc(C(F)(F)F)c2C#N)c1, the viability, T/C is 110%.

In the case of `COc1cc(C2c3cc4c(cc3C(OC3OC5COC(C)OC5C(O)C3O)C3COC(=O)C23)OCO4)cc(OC)c1O` (stereo unspecified) + Nc1ccc(C#CCN(C(=O)Cc2ncc(C(F)(F)F)cc2C(F)(F)F)c2ccc(F)cc2)nn1, the viability, T/C is 90.8%.

Still in this experiment, the particulars now being: second compound 0.0316 µM; first compound 0.1 µM; stronger effect = lower value.
For `CC1COCCN1c1cc(C2(S(C)(=N)=O)CC2)nc(-c2ccnc3[nH]ccc23)n1` (stereo unspecified) + Cc1cccc(N(C)C(=O)C2C(O)CCN2c2nc(C)cc(C(F)(F)F)c2C#N)c1, the viability, T/C is 97.9%.

For the molecule `CCc1cc2c(N3CCc4c(cc(Cn5ccnc5)cc4-c4cn(C)nc4C(F)(F)F)C3=O)ccnc2c(OC)n1` + Cc1cccc(N(C)C(=O)C2C(O)CCN2c2nc(C)cc(C(F)(F)F)c2C#N)c1, the viability, T/C was 98.7%.

As for `COc1cc(C2c3cc4c(cc3C(OC3OC5COC(C)OC5C(O)C3O)C3COC(=O)C23)OCO4)cc(OC)c1O` (stereo unspecified) + Nc1ccc(C#CCN(C(=O)Cc2ncc(C(F)(F)F)cc2C(F)(F)F)c2ccc(F)cc2)nn1, the viability, T/C is 92.8%.

The experiment is the same for the next values; noted with them: second compound 0.0316 µM; first compound 0.316 µM; stronger effect = lower value.
`CC1COCCN1c1cc(C2(S(C)(=N)=O)CC2)nc(-c2ccnc3[nH]ccc23)n1` (stereo unspecified) + Cc1cccc(N(C)C(=O)C2C(O)CCN2c2nc(C)cc(C(F)(F)F)c2C#N)c1: the viability, T/C was 64.5%.

For `CCc1cc2c(N3CCc4c(cc(Cn5ccnc5)cc4-c4cn(C)nc4C(F)(F)F)C3=O)ccnc2c(OC)n1` + Cc1cccc(N(C)C(=O)C2C(O)CCN2c2nc(C)cc(C(F)(F)F)c2C#N)c1, the viability, T/C is 121%.

Take `COc1cc(C2c3cc4c(cc3C(OC3OC5COC(C)OC5C(O)C3O)C3COC(=O)C23)OCO4)cc(OC)c1O` (stereo unspecified) + Nc1ccc(C#CCN(C(=O)Cc2ncc(C(F)(F)F)cc2C(F)(F)F)c2ccc(F)cc2)nn1: the viability, T/C is 86.8%.

Still in this experiment, the particulars now being: second compound 0.0316 µM; first compound 1 µM; stronger effect = lower value.
On to `CC1COCCN1c1cc(C2(S(C)(=N)=O)CC2)nc(-c2ccnc3[nH]ccc23)n1` (stereo unspecified) + Cc1cccc(N(C)C(=O)C2C(O)CCN2c2nc(C)cc(C(F)(F)F)c2C#N)c1, for which the viability, T/C is 76%.

`CCc1cc2c(N3CCc4c(cc(Cn5ccnc5)cc4-c4cn(C)nc4C(F)(F)F)C3=O)ccnc2c(OC)n1` + Cc1cccc(N(C)C(=O)C2C(O)CCN2c2nc(C)cc(C(F)(F)F)c2C#N)c1: the viability, T/C was 125%.

With `COc1cc(C2c3cc4c(cc3C(OC3OC5COC(C)OC5C(O)C3O)C3COC(=O)C23)OCO4)cc(OC)c1O` (stereo unspecified) + Nc1ccc(C#CCN(C(=O)Cc2ncc(C(F)(F)F)cc2C(F)(F)F)c2ccc(F)cc2)nn1, the viability, T/C was 60.5%.

The same experiment, now with this note: second compound 0.0316 µM; first compound 3.16 µM; stronger effect = lower value.
As for `CC1COCCN1c1cc(C2(S(C)(=N)=O)CC2)nc(-c2ccnc3[nH]ccc23)n1` (stereo unspecified) + Cc1cccc(N(C)C(=O)C2C(O)CCN2c2nc(C)cc(C(F)(F)F)c2C#N)c1, the viability, T/C is 49.4%.

The record behind these values is PubChem BioAssay AID1963831 (Molecular Pharmacology Branch, DTP, NCI, 2024).
